The text below walks through data of article PMC9021288 (Nature Communications, 2022).

Where “and” joins values, the source holds several entries; their conditions need not be identical. Equal entries are not always repeated. Where two headings read alike, the source gives them in different places.

The subject of series [1] is P. falciparum NF54-HGL gametocytes. Description: Gametocyte viability assay (72 h, luminescence). The class given is cell-based, Plasmodium falciparum. Here is the method: Gametocyte viability assays on NF54-HGL parasites were performed using an adapted high-throughput protocol as previously described[15],[64]. In short, asexual blood-stage parasite cultures were set up at 1% parasitemia in a semi-automated shaker system at 5% hematocrit. From day four until day eight or nine, parasites were treated with 50 mM N-acetyl glucosamine to eliminate all asexual blood-stage parasites. Subsequently, gametocytes were isolated by a Percoll density gradient centrifugation. At day 11, gametocytes were seeded (5,000 per well) in 30 µl in white 384-well plates containing 30 µl of compounds diluted in medium (0.1% DMSO). After a 72-h incubation, 30 µl of ONE-Glo reagent (Promega) was added according to manufacturer’s protocol and luminescence was quantified using the BioTek Synergy 2 Plate reader. Values were normalized to DMSO- and epoxomicin or dihydroartemisinin-treated controls.

In series [2] the test system is cryopreserved human primary hepatocytes. The series is described as follows: in vitro. To be noted: human, hepatocytes. From the text: Briefly, cryopreserved human primary hepatocytes were thawed and cultured as described above.
Series [3] concerns P. falciparum Pf3D7^0087/N9. Description: Single dose in vivo efficacy in humanized NSG mice. Set-up: species or system Plasmodium falciparum. Conditions: for parasitemia outcome: single 50 mg/kg oral gavage on day 4, over three days. As for the experimental part: The effect of pantothenamides on P. falciparum Pf3D7^0087/N9 [66] in vivo was assessed in female NSG mice (NODscidIL2Rγ^null) at the Swiss Tropical and Public Health Institute (Basel, Switzerland) as described previously (Supplementary Table 30)[15],[67]. Briefly, humanized mice were engrafted daily with human erythrocyte suspensions from days -11 to day 6. […] On day 4, groups of n = 2 mice were treated with a single dose pantothenamides or chloroquine (50 mg/kg) by oral gavage. […] Serial dilutions were prepared in the same solvent to concentrations 50 times higher than the corresponding CAL and QC concentrations. The concentrations were calculated under consideration of purity and salt factor. The spiking of the CAL and QC sample were performed at room temperature.

The nature of series [4]: Crystal screening (XRPD). The class given is physicochemical. To be noted: 36 conditions. As for the experimental part: Crystal screening for each further characterized pantothenamide was performed by a commercial service (Crystal Pharmatech Co., Ltd.) under 36 conditions using a variety of crystallization methods, including liquid vapor diffusion, slow evaporation, slurry conversion and salt/co-crystal formation and solvents. X-ray power diffraction (XRPD) patterns were collected by Bruker X-ray powder diffractometers.

The mark [5] stands for this setting: per replicate experiment, read-out: IC50, sexual blood stages.
The mark [6] stands for this setting: day 5 post infection, 50 mg/kg p.o. on day 4, per mouse, 50 mg/kg.
Where [7] appears, read: day 6 post infection, per mouse.
The mark [8] stands for this setting: day 7 post infection, per mouse.

`C[C@@H](CNC(=O)[C@H](O)C(C)(C)CO)NC(=O)c1cccc(C#N)c1` (stereo in doubt) [MMV884962]: the “Sexual blood stages viability, dose-response” value (“Sexual blood stages viability” for short) was 92.55 and 54.1 in series [1] (Log concentration (M) -9); 110.8 and 104.4 in series [1] (Log concentration (M) -9.5); 97.15 and 70.3 in series [1] (Log concentration (M) -10). In series [1] (setting [5]), the IC50 (usually the concentration that gives 50% inhibition) was 5.95 nM and 2.17 nM. Also, the “Human hepatocyte CLint” value in series [2] worked out at 0.3 µl/min/10^6 cells. The Parasitemia was 0.31 and 0.28 in series [3] (setting [6]); 0.05 in series [3] (setting [7]); 0 in series [3] (setting [8]). Besides, the parasitemia outcome in series [3] was “reduced parasitemias below detectable levels”. Also, the Crystalline entry in series [4] is recorded as “No”.
Turning to `C[C@@H](CNC(=O)[C@H](O)C(C)(C)CO)NC(=O)c1cccc(F)c1` (stereo in doubt) [MMV1542001], the “Sexual blood stages viability” value in series [1] (Log concentration (M) -9) was 60.65 and 74.3; in series [1] (Log concentration (M) -9.5), 76.05 and 100.7; in series [1] (Log concentration (M) -10), 85.65 and 89. In addition, the IC50 in series [1] (setting [5]) was 1.98 nM and 9.93 nM. In addition, the “Human hepatocyte CLint” value in series [2] amounted to 0.5 µl/min/10^6 cells. Besides, the Parasitemia in series [3] (setting [6]) is 0.4 and 0.31; in series [3] (setting [7]), 0.06 and 0.01; in series [3] (setting [8]) it was 0. For the same compound, in series [3], the parasitemia outcome is recorded as “reduced parasitemias below detectable levels”. In addition, the Crystalline entry in series [4] is on record as “No”.
Regarding `C[C@@H](CNC(=O)[C@H](O)C(C)(C)CO)NC(=O)c1cc(C#N)ccc1F` [MMV693182], the “Sexual blood stages viability” value was 49.3 and 51 in series [1] (Log concentration (M) -7.5); 81.9 and 78.35 in series [1] (Log concentration (M) -8); 96 and 103.7 in series [1] (Log concentration (M) -8.5); 97.2 and 103.7 in series [1] (Log concentration (M) -9); 95 and 105.75 in series [1] (Log concentration (M) -9.5); 95.6 and 117.9 in series [1] (Log concentration (M) -10). The IC50 is 32.9 nM in series [1] (Plasmodium falciparum, NF54, per replicate experiment, read-out: IC50, sexual blood stages); 21.4 to 32.9 nM in series [1] (Plasmodium falciparum, NF54, sexual viability assay, range of independent experiments, read-out: Gametocyte IC50 range (N)); 21.4 nM in series [1] (setting [5]). The Parasitemia in series [3] (setting [6]) was 0.28 and 0.38; in series [3] (setting [7]), 0.03 and 0.05; in series [3] (setting [8]), 0.02. For the same compound, in series [3], the parasitemia outcome is “not fully cleared”. In addition, the Crystalline entry in series [4] is listed as “Yes”.
With `CC(C)(CO)[C@@H](O)C(=O)NCCNC(=O)c1cc(C#N)ccc1F` [MMV976394], the “Sexual blood stages viability” value was 82.2 and 80.4 in series [1] (Log concentration (M) -6); 89.6 and 82.4 in series [1] (Log concentration (M) -6.5); 87.4 and 85.95 in series [1] (Log concentration (M) -7); 108.15 and 96.65 in series [1] (Log concentration (M) -7.5); 91.85 and 97.6 in series [1] (Log concentration (M) -8); 92.6 and 88 in series [1] (Log concentration (M) -8.5). In addition, the “Sexual blood stages viability” value in series [1] (Log concentration (M) -9) is 87.75 and 103.75; in series [1] (Log concentration (M) -9.5) it was 90 and 115.4; in series [1] (Log concentration (M) -10), 90 and 95.6. Besides, in series [2], the “Human hepatocyte CLint” value amounted to 0.2 µl/min/10^6 cells. For the same compound, the Parasitemia in series [3] (setting [6]) was 0.56 and 0.41; in series [3] (setting [7]), 0.32; in series [3] (setting [8]), 0.17. In series [3], the parasitemia outcome was “not fully cleared”. Besides, in series [4], the Crystalline result is reported as “No”.
